EP4700018A1, “NAV1.8 INHIBITORS, PREPARATION METHOD THEREFOR AND USE THEREOF” (Shanghai Institute of Materia Medica, Chinese Academy of …, priority 2023, dated 2024)

Legend:
[1] = target: human Nav1.8 sodium channel (Homo sapiens, UniProt Q9Y5Y9); assay: Blocking activity on sodium channel 1.8 (Nav1.8), whole-cell manual patch clamp; assay type: cell-based; conditions: for inhibition at 0.001 µM: read-out: inhibition Percent @1 nM, 1 nM compound; for inhibition Percent @1 nM: 1 nM compound, 0.001 µM; for inhibition at 0.03 µM: read-out: inhibition Percent @30 nM, 30 nM compound; for inhibition at 0.01 µM: read-out: inhibition Percent @10 nM, 10 nM compound
Chain of human Nav1.8 sodium channel (Q9Y5Y9 whole entry): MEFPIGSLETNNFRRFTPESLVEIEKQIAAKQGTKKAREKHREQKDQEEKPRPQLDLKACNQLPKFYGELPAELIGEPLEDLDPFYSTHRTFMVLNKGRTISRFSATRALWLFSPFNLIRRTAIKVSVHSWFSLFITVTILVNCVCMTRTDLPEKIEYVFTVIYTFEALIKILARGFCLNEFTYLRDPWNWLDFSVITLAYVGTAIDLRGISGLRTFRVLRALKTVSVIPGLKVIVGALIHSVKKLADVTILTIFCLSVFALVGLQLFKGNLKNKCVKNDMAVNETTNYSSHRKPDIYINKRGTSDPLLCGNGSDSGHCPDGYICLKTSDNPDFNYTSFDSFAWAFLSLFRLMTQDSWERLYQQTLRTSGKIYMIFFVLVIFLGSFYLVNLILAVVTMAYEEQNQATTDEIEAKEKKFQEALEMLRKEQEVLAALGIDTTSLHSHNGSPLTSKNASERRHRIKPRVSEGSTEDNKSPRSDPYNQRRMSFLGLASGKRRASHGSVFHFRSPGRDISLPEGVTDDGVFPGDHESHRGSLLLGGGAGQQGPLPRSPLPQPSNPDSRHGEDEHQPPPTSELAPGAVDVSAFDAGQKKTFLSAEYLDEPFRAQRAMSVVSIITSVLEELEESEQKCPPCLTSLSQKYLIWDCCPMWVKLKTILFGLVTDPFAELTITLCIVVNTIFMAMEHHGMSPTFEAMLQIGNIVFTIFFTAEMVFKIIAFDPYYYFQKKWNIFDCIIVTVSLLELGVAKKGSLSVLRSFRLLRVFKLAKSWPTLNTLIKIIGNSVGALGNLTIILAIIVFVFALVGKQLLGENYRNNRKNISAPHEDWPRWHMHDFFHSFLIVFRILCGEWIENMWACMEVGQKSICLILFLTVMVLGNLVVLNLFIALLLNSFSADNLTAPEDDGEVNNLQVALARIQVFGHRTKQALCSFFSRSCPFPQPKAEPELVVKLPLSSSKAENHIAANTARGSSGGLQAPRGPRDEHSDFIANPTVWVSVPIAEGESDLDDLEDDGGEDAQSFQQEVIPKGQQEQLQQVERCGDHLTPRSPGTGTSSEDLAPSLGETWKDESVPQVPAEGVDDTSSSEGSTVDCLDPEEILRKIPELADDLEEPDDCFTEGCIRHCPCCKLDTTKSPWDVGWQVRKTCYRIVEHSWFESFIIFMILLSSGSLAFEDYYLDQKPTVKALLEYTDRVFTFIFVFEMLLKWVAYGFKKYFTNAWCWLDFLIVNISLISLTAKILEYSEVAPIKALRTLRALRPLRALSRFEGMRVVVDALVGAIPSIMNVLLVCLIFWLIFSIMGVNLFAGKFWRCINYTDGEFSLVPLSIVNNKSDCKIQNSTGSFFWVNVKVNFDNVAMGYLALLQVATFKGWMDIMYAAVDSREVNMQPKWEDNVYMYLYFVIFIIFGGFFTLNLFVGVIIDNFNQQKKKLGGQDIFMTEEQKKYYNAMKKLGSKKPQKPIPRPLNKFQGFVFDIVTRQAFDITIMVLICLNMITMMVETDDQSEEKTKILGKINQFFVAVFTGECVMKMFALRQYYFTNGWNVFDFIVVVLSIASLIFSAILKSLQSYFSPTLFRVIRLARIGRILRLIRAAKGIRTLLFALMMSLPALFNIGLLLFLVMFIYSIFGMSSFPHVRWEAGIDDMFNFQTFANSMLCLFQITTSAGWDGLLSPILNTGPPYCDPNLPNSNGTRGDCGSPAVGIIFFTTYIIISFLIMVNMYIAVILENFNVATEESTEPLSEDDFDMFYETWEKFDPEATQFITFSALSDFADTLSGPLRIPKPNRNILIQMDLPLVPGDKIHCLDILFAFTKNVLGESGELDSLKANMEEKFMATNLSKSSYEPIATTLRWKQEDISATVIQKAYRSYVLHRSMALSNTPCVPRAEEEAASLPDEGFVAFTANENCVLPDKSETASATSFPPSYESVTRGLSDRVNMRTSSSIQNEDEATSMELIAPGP

[2] = In vivo pharmacokinetics in rats, single intravenous injection or oral gavage; conditions: male, SD, plasma, Rat; for Vd: read-out: Vss
Method: The in vivo pharmacokinetics in rats were evaluated via a single intravenous injection or oral gavage administration in this test example. • 1. Test Methods and Conditions: Male SD rats were fasted overnight and administered a single intravenous dose of 2 mg/kg or 1 mg/kg of the test compound (solvent for Intravenous administration was 5% DMSO/10% Solutol® HS 15/10% EtOH/75% saline, with a dosing volume of 5 mL/kg) and an oral gavage dose of 10 mg/kg or 5 mg/kg of the test compound (solvent for administration was 0.5% CMC-Na, with a dosing volume of 10 mL/kg), respectively. • 2. Sampling Information: Blood samples (0.2 mL) were collected from the retroorbital venous plexus at the designated time points: 0.25, 0.5, 1.0, 2.0, 3.0, 4.0, 6.0, 8.0, and 24 hours before and after dosing (a 5 min sampling point was added for the intravenous administration group), respectively. The samples were placed in EDTA-K2 tubes and centrifuged at 11,000 rpm for 5 minutes. Plasma was separated and frozen at -20°C. • 3. Assay Information: LC/MS/MS was used to determine the concentration of the parent drug in rat/mouse plasma following intravenous and oral gavage administration of the test compound. Pharmacokinetic parameters in rat/mouse plasma were calculated for both administration routes, and the bioavailability of each compound in rats was also calculated. Table 5: Intravenous Pharmacokinetic Information of Representative Compounds

[3] = intravenous, single dose 2 mg/kg or 1 mg/kg (figure not given)

Q: Which inhibition at 0.001 µM [1] does the source give for `CC1CN(c2nc(C(F)(F)F)c(Cl)cc2C(=O)Nc2ccc(F)c(C(N)=NO)c2)CCC1(F)F` (single isomer, unassigned) [Compound I-40-P1, 5-chloro-2-(4,4-difluoro-3-methylpiperidin-1-yl)-N-(4-fluoro-3-(N'-hydroxyamidino)phenyl)-6-(trifluoromethyl)nicotinamide] here?
A: 59%

Q: For `CC1CN(c2nc(C(F)(F)F)c(Cl)cc2C(=O)Nc2ccc(F)c(C(N)=NO)c2)CCC1(F)F` (single isomer, unassigned) [Compound I-40-P2, 5-chloro-2-(4,4-difluoro-3-methylpiperidin-1-yl)-N-(4-fluoro-3-(N'-hydroxyamidino)phenyl)-6-(trifluoromethyl)nicotinamide], which “inhibition Percent @1 nM” value [1] is on record?
A: 63%

Q: For `Cc1nc(N2CCC(F)(F)C(C)C2)c(C(=O)Nc2ccc(F)c(C(N)=NO)c2)cc1Cl` (single isomer, unassigned) [Compound I-41-P1, 5-chloro-2-(4,4-difluoro-3-methylpiperidin-1-yl)-N-(4-fluoro-3-(N'-hydroxyamidino)phenyl)-6-(methyl)nicotinamide], which inhibition at 0.001 µM [1] is on record?
A: 38%

Q: Which “inhibition Percent @1 nM” value [1] does the source give for `Cc1nc(N2CCC(F)(F)C(C)C2)c(C(=O)Nc2ccc(F)c(C(N)=NO)c2)cc1Cl` (single isomer, unassigned) [Compound I-41-P2, 5-chloro-2-(4,4-difluoro-3-methylpiperidin-1-yl)-N-(4-fluoro-3-(N'-hydroxyamidino)phenyl)-6-(methyl)nicotinamide] here?
A: 35%

Q: For `Cc1nc(N2CCCC(F)(F)CC2)c(C(=O)Nc2ccc(F)c(C(=O)O)c2)cc1Cl` [Compound I7-b, 5-(5-chloro-2-(4,4-difluoroazepan-1-yl)-6-methylnicotinamido)-2-fluorobenzoic acid], which inhibition at 0.03 µM [1] is on record?
A: 33%

Q: Which inhibition at 0.001 µM [1] does the source give for `Cc1nc(N2CCCC(F)(F)CC2)c(C(=O)Nc2ccc(F)c(C(=N)N)c2)cc1Cl` [Compound I-2, N-(3-amidino-4-fluorophenyl)-5-chloro-2-(4,4-difluoroazepan-1-yl)-6-methylnicotinamide] here?
A: 79%

Q: For `Cc1nc(N2CCCC(F)(F)CC2)c(C(=O)Nc2ccc(F)c(C(N)=NC#N)c2)cc1Cl` [Compound I-3, 5-chloro-N-(3-(N'-cyanoamidino)-4-fluorophenyl)-2-(4,4-difluoroazepan-1-yl)-6-meth ylnicotinamide], which AUC(0-t) [2, 3] is on record?
A: 567 ng·h/mL

Q: And the clearance [2, 3]?
A: 29.7 mL/min/kg

Q: What about the half-life [2, 3] of the same molecule?
A: 19.5 min

Q: What about the Vd [2, 3] of the same molecule?
A: 0.442 L/kg

Q: And the AUC(0-t) ([2]; oral gavage, 5mg/kg)?
A: 1770 ng·h/mL

Q: What about the Cmax ([2]; oral gavage, 5mg/kg) of the same molecule?
A: 381 ng/mL

Q: And the Tmax ([2]; oral gavage, 5mg/kg)?
A: 6 h

Q: And the half-life ([2]; oral gavage, 5mg/kg)?
A: 125 min

Q: And the bioavailability ([2]; oral gavage, 5mg/kg)?
A: 62.4%

Q: Which inhibition at 0.001 µM [1] does the source give for `Cc1nc(N2CCCC(F)(F)CC2)c(C(=O)Nc2ccc(Cl)c(C(N)=NO)c2)cc1Cl` [Compound I-5, 5-chloro-2-(4,4-difluoroazepan-1-yl)-N-(4-chloro-3-(N'-hydroxyamidino)phenyl)-6-me thylnicotinamide] here?
A: 82%

Q: For `Cc1nc(N2CCCC(F)(F)CC2)c(C(=O)Nc2ccc(Cl)c(C(=N)N)c2)cc1Cl` [Compound I-6, N-(3-amidino-4-chlorophenyl)-5-chloro-2-(4,4-difluoroazepan-1-yl)-6-methylnicotinamide], which inhibition at 0.001 µM [1] is on record?
A: 65%

Q: With `Cc1ccc(NC(=O)c2cc(Cl)c(C)nc2N2CCCC(F)(F)CC2)cc1C(N)=NO` [Compound I-7, 5-chloro-2-(4,4-difluoroazepan-1-yl)-N-(3-(N'-hydroxyamidino)-4-methylphenyl)-6-me thylnicotinamide] as the molecule, how does the inhibition at 0.01 µM [1] read?
A: 83%

Q: With `Cc1ccc(NC(=O)c2cc(Cl)c(C)nc2N2CCCC(F)(F)CC2)cc1C(=N)N` [Compound I-8, N-(3-amidino-4-methylphenyl)-5-chloro-2-(4,4-difluoroazepan-1-yl)-6-methylnicotinamide] as the molecule, how does the inhibition at 0.001 µM [1] read?
A: 51%

Q: For `COc1ccc(NC(=O)c2cc(Cl)c(C)nc2N2CCCC(F)(F)CC2)cc1C(=N)N` [Compound I-10, N-(3-amidino-4-methoxyphenyl)-5-chloro-2-(4,4-difluoroazepan-1-yl)-6-methylnicoti namide], which inhibition at 0.001 µM [1] is on record?
A: 32%

Q: For `Cc1nc(N2CCCC(F)(F)CC2)c(C(=O)Nc2cccc(C(N)=NO)c2)cc1Cl` [Compound I-11, 5-chloro-2-(4,4-difluoroazepan-1-yl)-N-(3-(N'-hydroxyamidino)phenyl)-6-methylnicoti namide], which inhibition at 0.001 µM [1] is on record?
A: 90%

Q: For `Cc1nc(N2CCCC(F)(F)CC2)c(C(=O)Nc2cccc(C(=N)N)c2)cc1Cl` [Compound I-12, N-(3-amidinophenyl)-5-chloro-2-(4,4-difluoroazepan-1-yl)-6-methylnicotinamide], which IC50 ([1]; Nav1.8 channel current, HEK293 cells stably expressing human Nav1.8, clamped at -60 mV, mean ± SEM, read-out: IC50) is on record?
A: 0.26 ± 0.06 nM

Q: What about the inhibition at 0.001 µM [1] of the same molecule?
A: 73%

Q: Which inhibition at 0.001 µM [1] does the source give for `Cc1nc(N2CCCC(F)(F)CC2)c(C(=O)Nc2ccc(C(N)=NO)cc2)cc1Cl` [Compound I-13, 5-chloro-2-(4,4-difluoroazepan-1-yl)-N-(4-(N'-hydroxyamidino)phenyl)-6-methylnicoti namide] here?
A: 85%

Q: With `Cc1nc(N2CCCC(F)(F)CC2)c(C(=O)Nc2ccnc(C(N)=NO)c2)cc1Cl` [Compound I-15, 5-chloro-2-(4,4-difluoroazepan-1-yl)-N-(2-(N'-hydroxyamidinoimino)pyridin-4-yl)-6-m ethylnicotinamide] as the molecule, how does the inhibition at 0.001 µM [1] read?
A: 66%

Q: Which inhibition at 0.03 µM [1] does the source give for `Cc1nc(N2CCCC(F)(F)CC2)c(C(=O)Nc2ccc(F)c(C(=O)NC(=N)N)c2)cc1Cl` [Compound I-17, N-(3-(amidinocarbamoyl)-4-fluorophenyl)-5-chloro-2-(4,4-difluoroazepan-1-yl)-6-met hylnicotinamide] here?
A: 99%

Q: Which inhibition at 0.03 µM [1] does the source give for `Cc1nc(N2CCCC(F)(F)CC2)c(C(=O)Nc2cccc(C(=O)NC(=N)N)c2)cc1Cl` [Compound I-18, N-(3-(amidinocarbamoyl)phenyl)-5-chloro-2-(4,4-difluoroazepan-1-yl)-6-methylnicoti namide] here?
A: 90%

Q: With `Cc1nc(N2CCCC(F)(F)CC2)c(C(=O)Nc2ccc(F)c(NC(=N)N)c2)cc1Cl` [Compound I-19, 5-chloro-2-(4,4-difluoroazepan-1-yl)-N-(4-fluoro-3-guanidinophenyl)-6-methylnicotin amide] as the molecule, how does the inhibition at 0.001 µM [1] read?
A: 49%

Q: Which inhibition at 0.03 µM [1] does the source give for `Cc1nc(N2CCCCCC2)c(C(=O)Nc2cccc(C(=N)N)c2)cc1Cl` [Compound I-23, 2-(azepan-1-yl)-N-(3-amidinophenyl)-5-chloro-6-methylnicotinamide] here?
A: 95%

Q: For `C#Cc1cc(C(=O)Nc2ccc(F)c(C(N)=NO)c2)c(N2CCCC(F)(F)CC2)nc1C` [Compound I-26, 2-(4,4-difluoroazepan-1-yl)-5-ethynyl-N-(4-fluoro-3-(N'-hydroxyamidino)phenyl)-6-m ethylnicotinamide], which inhibition at 0.01 µM [1] is on record?
A: 76%

Q: Which inhibition at 0.01 µM [1] does the source give for `Cc1nc(N2CCCC(F)(F)CC2)c(C(=O)Nc2ccc(F)c(C(N)=NO)c2)cc1C(F)(F)F` [Compound I-27, 2-(4,4-difluoroazepan-1-yl)-N-(4-fluoro-3-(N'-hydroxyamidino)phenyl)-6-methyl-5-(trifluoromethyl)nicotinamide] here?
A: 83%

Q: For `Cc1ccc(C(=O)Nc2ccc(F)c(C(N)=NO)c2)c(N2CCCC(F)(F)CC2)n1` [Compound I-29, 2-(4,4-difluoroazepan-1-yl)-N-(4-fluoro-3-(N'-hydroxyamidino)phenyl)-6-methylnicoti namide], which inhibition at 0.01 µM [1] is on record?
A: 57%

Q: With `O=C(Nc1ccc2c(c1)S(=O)(=O)NC2)c1c(N2CCCC(F)(F)CC2)ccc(C(F)(F)F)c1Cl` [Compound I-31, 2-chloro-6-(4,4-difluoroazepan-1-yl)-N-(1,1-dioxo-2,3-dihydrobenzisothiazol-6-yl)-3-tr ifluoromethylbenzamide] as the molecule, how does the inhibition at 0.001 µM [1] read?
A: 46%

Q: With `NC(=NO)c1cc(NC(=O)c2c(N3CCCC(F)(F)CC3)ccc(C(F)(F)F)c2Cl)ccc1F` [Compound I-32, 2-chloro-6-(4,4-difluoroazepan-1-yl)-N-(4-fluoro-3-(N'-hydroxyamidino)phenyl)-3-(trifluoromethyl)benzamide] as the molecule, how does the inhibition at 0.001 µM [1] read?
A: 50%

Q: With `N#CN=C(N)c1cc(NC(=O)c2cc(Cl)c(C(F)(F)F)nc2N2CCCC(F)(F)CC2)ccc1F` [Compound I-37, 5-chloro-N-(3-(N'-cyanoamidino)-4-fluorophenyl)-2-(4,4-difluoroazepan-1-yl)-6-triflu oromethylnicotinamide] as the molecule, how does the inhibition at 0.01 µM [1] read?
A: 62%

Q: Which inhibition at 0.001 µM [1] does the source give for `NC(=NO)c1cc(NC(=O)c2cc(Cl)c(C(F)F)nc2N2CCCC(F)(F)CC2)ccc1F` [Compound I-38, 5-chloro-2-(4,4-difluoroazepan-1-yl)-6-(difluoromethyl)-N-(4-fluoro-3-(N'-hydroxyamidino)phenyl)nicotinamide] here?
A: 33%

Q: Which results are given for `Cc1cc(F)ccc1Oc1cc(C(F)(F)F)ccc1C(=O)Nc1cc[nH]c(=O)c1` [VX-150, reference compound]?
A: AUC(0-t) [2, 3]: 2510 ng·h/mL; clearance [2, 3]: 13.9 mL/min/kg; half-life [2, 3]: 64.8 min; Vd [2, 3]: 1.09 L/kg; AUC(0-t) ([2]; oral gavage, 10mg/kg): 3810 ng·h/mL; Cmax ([2]; oral gavage, 10mg/kg): 723 ng/mL; Tmax ([2]; oral gavage, 10mg/kg): 2 h; half-life ([2]; oral gavage, 10mg/kg): 173 min; bioavailability ([2]; oral gavage, 10mg/kg): 30.4%
